The values that follow come from ChEMBL document CHEMBL2074387, “Expression of the bile salt export pump is maintained after chronic cholestasis in the rat” (Gastroenterology, 2000).

In data set [1] the target is T1, Bile salt export pump (Rattus norvegicus, UniProt O70127).
T1 sequence (O70127 whole entry): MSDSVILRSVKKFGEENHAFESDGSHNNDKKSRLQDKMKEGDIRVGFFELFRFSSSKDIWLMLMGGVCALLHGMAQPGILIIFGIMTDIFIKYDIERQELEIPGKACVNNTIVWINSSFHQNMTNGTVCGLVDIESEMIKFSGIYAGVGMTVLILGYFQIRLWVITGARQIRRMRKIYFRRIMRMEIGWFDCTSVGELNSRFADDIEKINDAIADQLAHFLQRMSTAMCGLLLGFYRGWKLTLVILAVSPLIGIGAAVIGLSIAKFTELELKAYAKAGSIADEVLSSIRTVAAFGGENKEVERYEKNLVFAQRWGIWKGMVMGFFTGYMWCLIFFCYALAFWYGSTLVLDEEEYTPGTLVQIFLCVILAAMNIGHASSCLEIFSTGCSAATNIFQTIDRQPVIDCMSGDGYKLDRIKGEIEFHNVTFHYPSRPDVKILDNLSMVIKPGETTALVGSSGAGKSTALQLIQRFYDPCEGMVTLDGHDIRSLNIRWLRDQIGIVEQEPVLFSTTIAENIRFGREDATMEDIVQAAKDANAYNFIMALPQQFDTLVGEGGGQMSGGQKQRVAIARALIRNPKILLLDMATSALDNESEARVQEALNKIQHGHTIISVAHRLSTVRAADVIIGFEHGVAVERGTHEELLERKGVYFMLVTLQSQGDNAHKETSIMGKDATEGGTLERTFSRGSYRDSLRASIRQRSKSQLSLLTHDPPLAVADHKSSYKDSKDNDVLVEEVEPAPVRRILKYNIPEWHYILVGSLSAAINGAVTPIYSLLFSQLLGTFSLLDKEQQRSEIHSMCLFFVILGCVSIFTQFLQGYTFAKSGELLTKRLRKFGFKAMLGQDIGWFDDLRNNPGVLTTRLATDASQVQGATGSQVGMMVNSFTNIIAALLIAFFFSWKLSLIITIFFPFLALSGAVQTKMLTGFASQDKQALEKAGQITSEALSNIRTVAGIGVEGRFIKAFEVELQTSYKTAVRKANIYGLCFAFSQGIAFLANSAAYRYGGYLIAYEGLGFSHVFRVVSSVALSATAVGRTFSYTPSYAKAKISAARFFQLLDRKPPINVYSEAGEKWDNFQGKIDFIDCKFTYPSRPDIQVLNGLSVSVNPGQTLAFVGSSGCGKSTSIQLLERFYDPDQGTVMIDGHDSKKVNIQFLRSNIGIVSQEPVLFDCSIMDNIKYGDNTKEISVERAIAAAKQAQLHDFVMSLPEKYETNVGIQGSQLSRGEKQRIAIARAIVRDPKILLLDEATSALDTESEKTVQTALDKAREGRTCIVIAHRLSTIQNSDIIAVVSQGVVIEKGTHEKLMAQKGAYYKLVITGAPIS
Put plainly: TP_TRANSPORTER: Western in vivo SD rat, liver. In kind it is functional, organism-based, Sprague-Dawley.

Data set [2] deals with T2, Hepatic sodium/bile acid cotransporter (Rattus norvegicus, UniProt P26435).
T2 sequence (P26435 whole entry): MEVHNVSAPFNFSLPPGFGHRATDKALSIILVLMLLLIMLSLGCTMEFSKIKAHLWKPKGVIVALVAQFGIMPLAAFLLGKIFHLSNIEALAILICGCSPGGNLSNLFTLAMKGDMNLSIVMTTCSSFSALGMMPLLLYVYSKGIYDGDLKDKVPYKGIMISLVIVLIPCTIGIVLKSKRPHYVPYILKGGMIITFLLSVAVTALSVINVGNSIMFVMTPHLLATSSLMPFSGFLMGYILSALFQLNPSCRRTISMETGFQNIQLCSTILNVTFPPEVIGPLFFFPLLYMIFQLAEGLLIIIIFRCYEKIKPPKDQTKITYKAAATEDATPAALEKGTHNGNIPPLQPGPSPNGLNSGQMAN
Description: TP_TRANSPORTER: Northern blot in vivo SD rat, liver. In kind it is functional, organism-based, Sprague-Dawley.

Turning to `C#C[C@]1(O)CC[C@H]2[C@@H]3CCc4cc(O)ccc4[C@H]3CC[C@@]21C` [ETHINYL ESTRADIOL], the Activity entry in data set [1] and in data set [2] was “inducer [Decrease]” each time.
